Laboratory results taken from US20240376097A1, “BCL-2 Inhibitor” (BeiGene Ltd., priority 2020, published 2024).
Read-outs that look alike come from different tables or passages of the source.

What was measured:
[1] = test system: recombinant human Bcl-2-G101V protein; experiment: Bcl-2-G101V TR-FRET Assay; type: binding; settings: ratio of biochemical IC50 Bcl-2 G101V / Bcl-2 WT
Outline: (§1)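 Compounds were titrated at increasing concentrations against the Bcl-2-G101V–ligand interaction. TR-FRET signals were then read (ex 337 nm; em 490/520 nm). Percent inhibition was derived from the 490-to-520 nm ratio, and IC50 from a four-parameter logistic equation.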

[2] = molecular target: recombinant human Bcl-2-G101V protein (Homo sapiens (Human), UniProt P10415, G101V); experiment: Bcl-2-G101V TR-FRET Assay; type: binding; settings: Bcl-2 G101V mutant, TR-FRET; read-out: Biochemical assay (IC50, nM) Bcl-2 G101V
Outline: as §1

[3] = test system: BCL-2 G101V knock-in cell line H96 (derive from RS4;11); experiment: Bcl 2-G101V Knock-In RS4;11 Cell Proliferation Assay; type: cell-based; settings: Homo sapiens, RS4;11 Bcl-2 G101V knock-in clone H96, 48 hrs, CellTiter-GLO, read-out: Cellular proliferation assay (IC50, nM) RS4
Outline: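 CellTiter-Glo luminescence after 48 h, 37 °C compound treatment (10 concentrations, maximum 1 μM or 10 μM) gave mean IC50 values. Cells were 50,000 per well of H96, a BCL2-G101V knock-in single clone derived from RS4;11 by Cas9 editing.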

[4] = molecular target: recombinant human Bcl-2 D103Y protein (Homo sapiens (Human), UniProt P10415, D103Y); experiment: Bcl-2-D103Y Biochemical Assay (TR-FRET); type: binding; settings: for IC50: TR-FRET, FITC labeled Bak peptide; for Ratio of Bcl-2 D103Y/Bcl-2 WT: ratio of IC50
Outline: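 Compounds titrated against the Bcl-2 D103Y–ligand interaction; inhibition derived from the TR-FRET emission ratio 490 nm/520 nm after 337 nm excitation. Four-parameter logistic fitting gave IC50.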

[5] = test system: RS4;11 (BCL-2 dependent acute lymphoblastic leukemia cell line); experiment: RS4;11 Cell Proliferation Assay; type: cell-based; settings: Homo sapiens, RS4-11, RS4;11 cells, read-out: Cellular proliferation assay (IC50, nM) RS4
Outline: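 Viability measured via CellTiter-Glo luminescence after a 48 h, 37 °C exposure to compounds (10 points, highest 1 μM). Seeding was 50,000 RS4;11 cells per well in 10% FBS RPMI-1640; IC50 given as mean.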

[6] = molecular target: Recombinant human Bcl-2 protein (Homo sapiens (Human), UniProt P10415); experiment: Bcl-2 TR-FRET Assay; type: binding
Outline: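 TR-FRET read (337 nm excitation, 520/490 nm emission) after 1 h with 0.5 nM FITC-labeled Bak peptide and Tb-cryptate anti-6His antibody. Bcl-2 at 0.05 nM had been pre-incubated 0.5 h with compound. IC50 fitted by four-parameter logistic equation.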

[7] = Bcl-2 wild type, TR-FRET, read-out: Biochemical assay (IC50, nM) Bcl-2 WT
[8] = wild type Bcl-2, unit inferred, read-out: Bcl-2 WT

Compound	Ratio of Bcl-2 G101V/WT [1]	IC50 [2] [nM]	IC50 [3] [nM]	IC50 [4] [nM]	Ratio of Bcl-2 D103Y/Bcl-2 WT [4]	IC50 [5] [nM]	IC50 [6, 7] [nM]	IC50 [6, 8] [nM]
[2H]C([2H])([2H])Oc1cc(CN2CCN(C3CC4(C3)CN(c3ccc(C(=O)NS(=O)(=O)c5ccc(NC[C@H]6CC[C@](C)(O)CC6)c([N+](=O)[O-])c5)c(Oc5cnc6[nH]cc(F)c6c5)c3)C4)[C@H](c3ccccc3C(C)C)C2)cc2c1OCC2(C)C [Example 326, 2-((3-fluoro-1H-pyrrolo[2,3-b]pyridin-5-yl)oxy)-N-((4-((((1r,4r)-4-hydroxy-4-methylcyclohexyl)methyl)amino)-3-nitrophenyl)sulfonyl)-4-(6-((R)-2-(2-isopropylphenyl)-4-((7-(methoxy-d3)-3,3-dimethyl-2,3-dihydrobenzofuran-5-yl)methyl)piperazin-1-yl)-2-azaspiro[3.3]heptan-2-yl)benzamide]	3	0.49	0.34	0.25	1.5	0.19	0.17	0.17
CCc1ccc(CN2CCN(C3CC4(C3)CN(c3ccc(C(=O)NS(=O)(=O)c5ccc(NC[C@H]6CC[C@](C)(O)CC6)c([N+](=O)[O-])c5)c(Oc5cnc6[nH]cc(F)c6c5)c3)C4)[C@H](c3ccccc3C(C)C)C2)cc1OC [Example 268, 4-(6-((R)-4-(4-ethyl-3-methoxybenzyl)-2-(2-isopropylphenyl)piperazin-1-yl)-2-azaspiro[3.3]heptan-2-yl)-2-((3-fluoro-1H-pyrrolo[2,3-b]pyridin-5-yl)oxy)-N-((4-((((1r,4r)-4-hydroxy-4-methylcyclohexyl)methyl)amino)-3-nitrophenyl)sulfonyl) benzamide]	1.6	1.3	0.25	0.88	1.1	0.1	0.79	0.79
COc1ccc(CN2CCN(C3CC4(CCN(c5ccc(C(=O)NS(=O)(=O)c6ccc(NC[C@H]7CC[C@](C)(O)CC7)c([N+](=O)[O-])c6)c(Oc6cnc7[nH]ccc7c6)c5)CC4)C3)C(c3ccccc3C(C)C)C2)cc1C#N (some centres unmarked) [Example 132, 2-((1H-pyrrolo[2,3-b]pyridin-5-yl)oxy)-4-(2-(4-(3-cyano-4-methoxybenzyl)-2-(2-isopropylphenyl)piperazin-1-yl)-7-azaspiro[3.5]nonan-7-yl)-N-((4-((((1r,4r)-4-hydroxy-4-methylcyclohexyl)methyl)amino)-3-nitrophenyl)sulfonyl)benzamide]	3.5	0.92	2.05	0.47	1.3	0.31	0.26	0.26
CC(C)c1ccccc1C1CN(Cc2ccccn2)CCN1C1CC2(CCN(c3ccc(C(=O)NS(=O)(=O)c4ccc(NC[C@H]5CC[C@](C)(O)CC5)c([N+](=O)[O-])c4)c(Oc4cnc5[nH]ccc5c4)c3)CC2)C1 (some centres unmarked) [Example 131]	10	0.51	4.34	0.29	5.7	0.57	0.05	0.05
COc1ccccc1CN1CCN(C2CC3(CCN(c4ccc(C(=O)NS(=O)(=O)c5ccc(NC[C@H]6CC[C@](C)(O)CC6)c([N+](=O)[O-])c5)c(Oc5cnc6[nH]ccc6c5)c4)CC3)C2)C(c2ccccc2C(C)C)C1 (some centres unmarked) [Example 47, 2-((1H-pyrrolo[2,3-b]pyridin-5-yl)oxy)-N-((4-((((1r,4r)-4-hydroxy-4-methylcyclohexyl)methyl)amino)-3-nitrophenyl)sulfonyl)-4-(2-(2-(2-isopropylphenyl)-4-(2-methoxybenzyl)piperazin-1-yl)-7-azaspiro[3.5]nonan-7-yl) benzamide]	4.4	0.53	5.33	0.4	3.3	1	0.12	0.12
COc1cc(CN2CCN(C3CC4(C3)CN(c3ccc(C(=O)NS(=O)(=O)c5ccc(NC[C@H]6CC[C@](C)(O)CC6)c([N+](=O)[O-])c5)c(Oc5cnc6[nH]ccc6c5)c3)C4)[C@H](c3ccccc3C(C)C)C2)ccc1OC1CC1 [Example 343, 2-((1H-pyrrolo[2,3-b]pyridin-5-yl)oxy)-4-(6-((R)-4-(4-cyclopropoxy-3-methoxybenzyl)-2-(2-isopropylphenyl)piperazin-1-yl)-2-azaspiro[3.3]heptan-2-yl)-N-((4-((((1r,4r)-4-hydroxy-4-methylcyclohexyl)methyl)amino)-3-nitrophenyl)sulfonyl)benzamide]	2.7	0.3	0.25	0.09	0.8	0.11	0.11	0.11
[2H]C([2H])([2H])Oc1ccc(CN2CCN(C3CC4(C3)CN(c3ccc(C(=O)NS(=O)(=O)c5ccc(NC[C@H]6CC[C@](C)(O)CC6)c([N+](=O)[O-])c5)c(Oc5cnc6[nH]cc(F)c6c5)c3)C4)[C@H](c3ccccc3C(C)C)C2)cc1 [Example 218, 2-((3-fluoro-1H-pyrrolo[2,3-b]pyridin-5-yl)oxy)-N-((4-((((1r,4r)-4-hydroxy-4-methylcyclohexyl)methyl)amino)-3-nitrophenyl)sulfonyl)-4-(6-((R)-2-(2-isopropylphenyl)-4-(4-(methoxy-d3)benzyl)piperazin-1-yl)-2-azaspiro[3.3]heptan-2-yl) benzamide]	2.5	0.25	0.29	0.11	1.0	0.12	0.1	0.1
COc1cc(CN2CCN(C3CC4(CCN(c5ccc(C(=O)NS(=O)(=O)c6ccc(NC[C@H]7CC[C@](C)(O)CC7)c([N+](=O)[O-])c6)c(Oc6cnc7[nH]cc(F)c7c6)c5)CC4)C3)[C@H](c3ccccc3C(C)C)C2)ccc1C1CC1 [Example 258, 4-(2-((R)-4-(4-cyclopropyl-3-methoxybenzyl)-2-(2-isopropylphenyl)piperazin-1-yl)-7-azaspiro[3.5]nonan-7-yl)-2-((3-fluoro-1H-pyrrolo[2,3-b]pyridin-5-yl)oxy)-N-((4-((((1r,4r)-4-hydroxy-4-methylcyclohexyl)methyl)amino)-3-nitrophenyl)sulfonyl) benzamide]	2.1	1.75	0.28	1.5	1.8	0.11	0.85	0.85
COCCN1CCN(C2CC3(CCN(c4ccc(C(=O)NS(=O)(=O)c5cc6c(c([N+](=O)[O-])c5)N[C@H](C[C@H]5CC[C@H](O)CC5)CO6)c(Oc5cnc6[nH]ccc6c5)c4)CC3)C2)C(c2ccccc2C(C)C)C1 (stereo partly drawn) [Example 14, 2-((1H-pyrrolo[2,3-b]pyridin-5-yl)oxy)-N-(((R)-3-(((1r, 4R)-4-hydroxycyclohexyl)methyl)-5-nitro-3,4-dihydro-2H-benzo[b][1,4]oxazin-7-yl)sulfonyl)-4-(2-(2-(2-isopropylphenyl)-4-(2-methoxyethyl)piperazin-1-yl)-7-azaspiro[3.5]nonan-7-yl)benzamide]	14.3	0.093	5.16	0.084	13	0.45	0.0065	0.0065
CC(C)c1ccccc1C1CN(Cc2ccc(N(C)C)cc2)CCN1C1CC2(CCN(c3ccc(C(=O)NS(=O)(=O)c4ccc(NC[C@H]5CC[C@](C)(O)CC5)c([N+](=O)[O-])c4)c(Oc4cnc5[nH]ccc5c4)c3)CC2)C1 (some centres unmarked) [Example 114, 2-((1H-pyrrolo[2,3-b]pyridin-5-yl)oxy)-4-(2-(4-(4-(dimethylamino)benzyl)-2-(2-isopropylphenyl)piperazin-1-yl)-7-azaspiro[3.5]nonan-7-yl)-N-((4-((((1r,4r)-4-hydroxy-4-methylcyclohexyl)methyl)amino)-3-nitrophenyl)sulfonyl)benzamide]	6.9	0.83	3.65	0.4	3.4	0.6	0.12	0.12
